Measurements taken from patent US20080286338A1, “Drug delivery system with scleral lens” (Boston Foundation for Sight, priority 2007, published 2008).
Where two headings read alike, the source gives them in different places.

How the values were obtained:
[1] = tested on: corneal neovascularization; experiment: Off-label topical AVASTIN for corneal neovascularization using the scleral lens drug delivery system; assay type: in vivo
Description: This study using AVASTIN® off-label, topically, to treat corneal neovascularization was repeated using the scleral lens drug delivery system. […] This therapeutic effect was achieved without BAK. Instead, the expanded pre-corneal tear film of the scleral lens drug delivery system provided adequate bioavailability of the drug without exposing the cornea to BAK.

[2] = tested on: corneal neovascularization; conditions: solution of 1% AVASTIN and 0.01% BAK, one drop, four times per day for at least thirty days, topical drops; cited from earlier work

## bevacizumab [AVASTIN®]
[1]; one drop of 1% AVASTIN added to expanded pre-corneal tear film of artificial tears in scleral lens twice per day, without BAK, by thirty days, continued benefit over subsequent sixty days
  therapeutic effect on corneal neovascularization: achieved a therapeutic effect by thirty days with continued benefit over the subsequent sixty days
[1]; scleral lens drug delivery system
  regression of corneal neovascularization (clinical photos, FIG. 5): regression of corneal neovascularization
[2]
  therapeutic effect on corneal neovascularization: Therapeutic effect was reported
